Measurements as given in patent US6699682B2, “Assay for inhibitors of fatty-acid amide hydrolase” (The Scripps Research Institute, priority 1995, dated 2004).

Legend:
[1] = tested on: rats; experiment: effect on spontaneous behavior of rats after ip injection (induction of sleep); format: in vivo, rat
Experimental: Synthetic cis-9,10-octadecenoamide was injected (ip) into rats in order to test its effect on spontaneous behavior at different doses: 1 (n=2), 2 (n=2), 5 (n=7), 10 (n=10), 20 (n=2), and 50 (n=2) mg, where n = number of rats tested. […] However, at a threshold of 5 mg and above there was a marked effect consisting of an induction of long-lasting motor quiescence associated with eyes closed, sedated behavior characteristic of normal sleep. Also as with normal sleep, the rats still responded to auditory stimuli with orienting reflex and sustained attention toward the source of stimulation. In addition, motor behavior was impaired. The latency to behavioral sedation following administration was about 4 minutes and subjects were normally active again after 1 hour (5 mg), 2 hour (10 mg), or 2.5 hour (20 mg and 50 mg).
We have compared cis-9,10-octadecenoamide to vehicle and the synthetic analogs listed in FIG. 1 to estimate the structural specificity of its sleep-inducing potential. […] More particularly, male Sprague-Dawley rats (300 g at the time of surgery) were implanted under halothane anesthesia (2-3%) with a standard set of electrodes for sleep recordings. This included two screw electrodes placed in the parietal bone over the hippocampus to record the subjects electroencephalogram (EEG) and two wire electrodes inserted in the neck musculature to record postural tone through electromyographic activity (EMG). Rats were housed individually with at libitum access to food and water. The dark-light cycle was controlled (12:12, lights on a 10:00 p.m.). One week after the surgery, rats were habituated to the recording conditions for at least three days. Upon the completion of the habituation period, rats received 2 milliliter (ip) of either: vehicle (5% ethanol/saline solution), cis-9,10-octadecenoamide (10 mg), or oleic acid (10 mg). […] Sleep recordings were visually scored and four stages were determined: wakefulness, slow-wave-sleep 1 (SWS1), slow-wave-sleep 2 (SWS2), and rapid eye movement (REM) sleep.

[2] = target: T1, human recombinant expressed FAAH (Homo sapiens, UniProt O00519); experiment: oleamide hydrolysis by COS-7 cells transfected with human oleamide hydrolase (TLC); format: biochemical; details: versus control COS-7 cells
T1 construct: expressed in transfected cells; host or cells: COS-7 cells, transient, pcDNA3; dounce-homogenised cell extract
T1 sequence (O00519 1-579): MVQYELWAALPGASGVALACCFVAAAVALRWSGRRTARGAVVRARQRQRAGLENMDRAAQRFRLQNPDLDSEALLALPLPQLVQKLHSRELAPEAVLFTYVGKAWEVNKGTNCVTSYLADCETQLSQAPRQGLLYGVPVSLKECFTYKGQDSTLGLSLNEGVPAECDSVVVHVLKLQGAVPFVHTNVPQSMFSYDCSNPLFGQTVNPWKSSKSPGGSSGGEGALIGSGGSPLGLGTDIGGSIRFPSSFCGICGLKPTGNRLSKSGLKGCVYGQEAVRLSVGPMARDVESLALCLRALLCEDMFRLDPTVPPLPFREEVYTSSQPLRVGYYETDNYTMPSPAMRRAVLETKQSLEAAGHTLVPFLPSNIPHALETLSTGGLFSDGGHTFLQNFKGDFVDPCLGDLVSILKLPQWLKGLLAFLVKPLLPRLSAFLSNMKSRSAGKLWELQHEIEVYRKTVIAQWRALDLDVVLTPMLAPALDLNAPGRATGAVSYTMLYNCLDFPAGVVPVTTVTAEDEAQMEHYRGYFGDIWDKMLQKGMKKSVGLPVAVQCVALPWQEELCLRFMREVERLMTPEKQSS
Experimental: For preparing the rat, mouse and human FAAH recombinant protein, the corresponding FAAH cDNAs were excised from the Bluescript II vectors and separately ligated into the eukaryotic expression vector, pcDNA3 (Invitrogen, San Diego, Calif.). 100 mm dishes of COS-7 cells were grown at 37° C. to 70% confluency in complete medium (DMEM with L-glutamine, non-essential amino acids, sodium pyruvate and fetal bovine serum). The COS-7 cells were then washed with serum-free medium and treated with 5 ml of transfection solution (5-6 μg of FAAH-pcDNA3 vector were preincubated with transfectamine (Gibco-BRL) for 30 minutes in 1 ml of serum free medium, then diluted to a final volume of 5 ml with serum free medium). The COS-7 cells were incubated at 37° C. for 5 hours, at which point 10 ml of complete medium was added to the cells and incubation was continued at 37° C. for 12 hours. The transfection solution was then aspirated away from the COS-7 cells, and the cells were incubated in a fresh batch of complete medium for another 24 hours. […]
While untransfected COS-7 cells contained negligible amounts of oleamide hydrolase activity, COS-7 cells transfected with the rat FAAH cDNA expressed high levels of oleamide hydrolase activity (FIG. 15A). The assay was performed as described in Section B where by TLC the conversion of oleamide to oleic acid was assessed.

## CCCCCCCC/C=C\CCCCCCCC(N)=O [cis-9,10-octadecenoamide, Cis-9,10-octadecenoamide]
[1]; 10 mg per rat
  duration of the biological (sleep-inducing) effect: two hours
[1]; rats, ip
  threshold dose for induction of long-lasting motor quiescence with eyes closed, sedated behavior: 5 mg
[1]; rats, ip, lower doses 1 and 2 mg
  effect on spontaneous behavior: no overt effect on spontaneous behavior
[2]
  conversion of oleamide to oleic acid by human FAAH-transfected COS-7 cells (qualitative, TLC): conversion to oleic acid is seen only in lane 2
